ChEMBL document CHEMBL3217562, “N-Substituted salicylamides as selective malaria parasite dihydroorotate dehydrogenase inhibitors” (Medchemcomm, 2011)
pEC50, pIC50: −log10 of the molar value.

How the values were obtained:
[1] = biological target: T1, Dihydroorotate dehydrogenase (quinone), mitochondrial (Homo sapiens, UniProt Q02127); assay: Inhibition of N-terminal truncated human recombinant DHODH assessed as ubiquinone reduction to 2,6-dichloroindophenol at 10 uM by spectrophotometric analysis relative to control
T1 sequence (Q02127 whole entry, the tested form may be a part): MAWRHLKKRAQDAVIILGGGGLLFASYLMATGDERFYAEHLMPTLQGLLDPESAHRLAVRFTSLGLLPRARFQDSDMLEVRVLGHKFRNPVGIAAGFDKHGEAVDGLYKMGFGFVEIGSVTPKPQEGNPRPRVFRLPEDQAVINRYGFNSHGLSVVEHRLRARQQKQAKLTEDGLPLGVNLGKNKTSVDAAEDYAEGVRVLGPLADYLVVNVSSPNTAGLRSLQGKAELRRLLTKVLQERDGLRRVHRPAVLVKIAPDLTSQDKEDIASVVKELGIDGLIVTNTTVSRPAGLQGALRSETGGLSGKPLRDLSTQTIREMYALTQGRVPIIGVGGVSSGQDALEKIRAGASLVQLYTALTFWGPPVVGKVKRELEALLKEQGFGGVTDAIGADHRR

[2] = biological target: T2, Dihydroorotate dehydrogenase (Plasmodium falciparum) (UniProt Q54A96); assay: Inhibition of N-terminal truncated Plasmodium falciparum recombinant DHODH assessed as ubiquinone reduction to 2,6-dichloroindophenol at 10 uM by spectrophotometric analysis relative to control
T2 sequence (whole entry): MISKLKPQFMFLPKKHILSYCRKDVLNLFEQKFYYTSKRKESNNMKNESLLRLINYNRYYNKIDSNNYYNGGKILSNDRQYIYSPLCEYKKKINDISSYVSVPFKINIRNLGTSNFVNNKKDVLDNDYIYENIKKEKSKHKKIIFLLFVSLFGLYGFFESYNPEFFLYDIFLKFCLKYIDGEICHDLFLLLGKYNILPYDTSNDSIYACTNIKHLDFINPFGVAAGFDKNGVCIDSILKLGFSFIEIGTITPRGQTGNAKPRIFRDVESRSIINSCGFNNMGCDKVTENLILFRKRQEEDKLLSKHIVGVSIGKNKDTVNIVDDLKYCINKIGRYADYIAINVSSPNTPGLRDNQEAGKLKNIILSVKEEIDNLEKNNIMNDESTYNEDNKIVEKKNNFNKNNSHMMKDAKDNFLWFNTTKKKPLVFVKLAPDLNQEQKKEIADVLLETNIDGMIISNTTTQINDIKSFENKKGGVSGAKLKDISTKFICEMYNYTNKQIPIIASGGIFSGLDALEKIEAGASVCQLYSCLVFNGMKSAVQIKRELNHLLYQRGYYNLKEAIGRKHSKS

[3] = biological target: T3, Dihydroorotate dehydrogenase (Plasmodium falciparum, UniProt Q54A96); assay: Inhibition of N-terminal truncated Plasmodium falciparum recombinant DHODH assessed as ubiquinone reduction to 2,6-dichloroindophenol by spectrophotometric analysis
T3 sequence (Q54A96 whole entry): T2 sequence (whole entry)

[4] = biological target: T1, Dihydroorotate dehydrogenase (quinone), mitochondrial; assay: Inhibition of N-terminal truncated human recombinant DHODH assessed as ubiquinone reduction to 2,6-dichloroindophenol by spectrophotometric analysis
[5] = biological target: T2, Dihydroorotate dehydrogenase (Plasmodium falciparum); assay: Inhibition of N-terminal truncated Plasmodium falciparum recombinant DHODH assessed as ubiquinone reduction to 2,6-dichloroindophenol at 100 uM by spectrophotometric analysis relative to control
[6] = system: Plasmodium falciparum; assay: Antiplasmodial activity against Plasmodium falciparum 3D7 after 48 hrs by [3H]-hypoxanthine incorporation assay; format: functional, organism-based
[7] = Selectivity ratio of IC50 for N-terminal truncated human recombinant DHODH to IC50 for N-terminal truncated Plasmodium falciparum recombinant DHODH

inhibition [1] | inhibition [2] | pIC50 [3] | pIC50 [4] | Compound | further results
15% | 17% | – | – | O=C(NCCc1ccccc1)c1c(O)cccc1O | –
– | – | 4.74 | < 3.70 | COc1ccc(O)c(C(=O)NCC(c2ccccc2)c2ccccc2)c1 | –
4% | 38% | 4.67 | < 3.70 | O=C(NCC(c1ccccc1)c1ccccc1)c1ccccc1O | –
5% | 9% | – | – | COc1ccc(C(=O)NCCc2ccccc2)c(O)c1 | –
6% | 21% | – | – | O=C(NCCc1ccccc1)c1ccccc1O | inhibition [5]: 53%
8% | 8% | – | – | COc1ccc(O)c(C(=O)NCCc2ccccc2)c1 | –
4% | 16% | – | – | O=C(NCc1ccccc1)c1ccccc1O | –
– | – | 5.10 | < 3.70 | O=C(NCC(c1ccccc1)c1ccccc1)c1cc(CO)ccc1O | pEC50 [6]: 4.28; Ratio IC50 [7]: 18
– | – | 4.85 | < 3.70 | COc1ccc(C(=O)NCC(c2ccccc2)c2ccccc2)c(O)c1 | –
3% | 3% | – | – | CN(CCc1ccccc1)C(=O)c1ccccc1O | –
8% | 10% | – | – | O=C(NCCc1ccccc1)c1cccc(Cl)c1O | –
8% | 16% | – | – | O=C(NCCc1ccccc1)c1ccc(Cl)cc1O | –
– | – | 5.15 | < 3.70 | O=C(NCC(c1ccccc1)c1ccccc1)c1cc(Cl)cc(Cl)c1O | pEC50 [6]: 3.77; Ratio IC50 [7]: > 20
7% | 39% | – | – | O=C(NCCCc1ccccc1)c1ccccc1O | –
6% | 23% | – | – | O=C(NCCc1ccccc1)c1cc(Cl)ccc1O | –
– | – | 4.36 | < 3.70 | O=C(NCC(c1ccccc1)c1ccccc1)c1cccc(Cl)c1O | –
4% | 20% | – | – | CC(CNC(=O)c1ccccc1O)c1ccccc1 (racemic) | –

inhibition [1] | inhibition [2] | pIC50 [3] | pIC50 [4] | Compound | further results
26% | 5% | – | – | O=C(NCCc1ccccc1)c1cc([N+](=O)[O-])ccc1O | –
– | – | 4.84 | < 3.70 | Cc1ccc(O)c(C(=O)NCC(c2ccccc2)c2ccccc2)c1 | –
8% | 7% | – | – | COc1cccc(C(=O)NCCc2ccccc2)c1O | –
– | – | < 3.90 | – | COc1cccc(O)c1C(=O)NCC(c1ccccc1)c1ccccc1 | –
– | – | 5.04 | < 3.70 | O=C(NCC(c1ccccc1)c1ccccc1)c1cc(Cl)ccc1O | pEC50 [6]: 4.64; Ratio IC50 [7]: 18
– | – | 5.00 | 3.89 | O=C(NCC(c1ccccc1)c1ccccc1)c1ccc(F)c(F)c1O | pEC50 [6]: 4.00; Ratio IC50 [7]: 18
– | – | 4.99 | < 3.70 | O=C(NCC(c1ccccc1)c1ccccc1)c1ccc(Cl)cc1O | –
21% | 22% | – | – | O=C(NCCC(c1ccccc1)c1ccccc1)c1ccccc1O | –
4% | 16% | – | – | Cc1ccc(O)c(C(=O)NCCc2ccccc2)c1 | –
– | – | 4.78 | < 3.70 | O=Cc1ccc(C(=O)NCC(c2ccccc2)c2ccccc2)c(O)c1 | –
6% | 0% | – | – | O=C(NC(c1ccccc1)c1ccccc1)c1ccccc1O | –
– | – | < 3.30 | < 3.70 | COc1cccc(C(=O)NCC(c2ccccc2)c2ccccc2)c1O | –
– | – | 4.97 | < 3.70 | O=C(NCC(c1ccccc1)c1ccccc1)c1cc(Br)ccc1O | –
– | – | < 4.00 | < 3.70 | O=C(NCC(c1ccccc1)c1ccccc1)c1cccc(CO)c1O | –
– | – | 4.58 | < 3.70 | O=C(NCC(c1ccccc1)c1ccccc1)c1cccc(F)c1O | –
– | – | < 3.90 | – | O=C(NCC(c1ccccc1)c1ccccc1)c1c(O)cccc1F | –
– | – | 4.34 | < 3.70 | O=C(NCC(c1ccccc1)c1ccccc1)c1ccc(CO)cc1O | –
